Drawing on ChEMBL document CHEMBL3585330, “Anticancer activity of koningic acid and semisynthetic derivatives” (Bioorg Med Chem, 2015), this text covers IC50 and Activity for six compounds.

Active and inactive are the calls of the source. No cut-off for these calls is given here.

Usually IC50 stands for the concentration needed to halve the response being measured.

Holding throughout (format): functional, cell-based
One assay concerns A-375. Put plainly: Antiproliferative activity against human A375 cells assessed as inhibition of cell proliferation incubated for 72 hrs by conventional ATP quantification method. To be noted: A-375, 72 h.
The nature of assay [1]: Antiproliferative activity against human NAMALWA cells assessed as inhibition of cell proliferation incubated for 72 hrs by conventional ATP quantification method. To be noted: NAMALVA.
The test system of assay [2] is A549. Put plainly: (§1) Antiproliferative activity against human A549 cells assessed as inhibition of cell proliferation incubated for 72 hrs by conventional ATP quantification method. To be noted: A549, 72 h.
The nature of assay [3]: Antiproliferative activity against human WM266.4 cells assessed as inhibition of cell proliferation incubated for 72 hrs by conventional ATP quantification method. To be noted: WM 266-4, 72 h.
The next assay concerns HCT-116. Put plainly: Antiproliferative activity against human HCT116 cells assessed as inhibition of cell proliferation incubated for 72 hrs by conventional ATP quantification method. To be noted: HCT-116, 72 h.
In another assay the test system is HOP-62. Nature of the assay: Antiproliferative activity against human HOP62 cells assessed as inhibition of cell proliferation incubated for 72 hrs by conventional ATP quantification method. The conditions noted are these: HOP-62, 72 h.
The subject of a further assay is OVCAR-3. Nature of the assay: Antiproliferative activity against human OVCAR3 cells assessed as inhibition of cell proliferation incubated for 72 hrs by conventional ATP quantification method. The conditions noted are these: OVCAR-3, 72 h.
A further assay deals with HT-29. Nature of the assay: Cytotoxicity against human HT-29 cells incubated for 72 hrs under hypoxic conditions by MTS assay. (In general: Tetrazolium dyes change colour on reduction, which living cells bring about.)
The test system of another assay is T47D. Put plainly: Antiproliferative activity against human T47D cells assessed as inhibition of cell proliferation incubated for 72 hrs by conventional ATP quantification method.
Another assay relates to DU-145. Put plainly: Antiproliferative activity against human DU145 cells assessed as inhibition of cell proliferation incubated for 72 hrs by conventional ATP quantification method. To be noted: DU-145, 72 h.
A further assay has as its system KM12. Put plainly: Antiproliferative activity against human KM12 cells assessed as inhibition of cell proliferation incubated for 72 hrs by conventional ATP quantification method. To be noted: KM12, 72 h.
For a further assay, the system named is SK-OV-3. Put plainly: Antiproliferative activity against human SKOV3 cells assessed as inhibition of cell proliferation incubated for 72 hrs by conventional ATP quantification method. The conditions noted are these: SK-OV-3, 72 h.
The subject of assay [4] is A549. The description is as §1. To be noted: A549, 72 h. The source holds these as a separate data set.
In a further assay the test system is MDA-MB-231. Nature of the assay: Cytotoxicity against human MDA-MB-231 cells incubated for 72 hrs under hypoxic conditions by MTS assay.
A further assay relates to TK-10. Nature of the assay: Antiproliferative activity against human TK10 cells assessed as inhibition of cell proliferation incubated for 72 hrs by conventional ATP quantification method. To be noted: TK-10, 72 h.
In another assay the test system is NCI-H460. Put plainly: Antiproliferative activity against human NCI-H460 cells assessed as inhibition of cell proliferation incubated for 72 hrs by conventional ATP quantification method. The conditions noted are these: NCI-H460, 72 h.

Regarding `COC(=O)C1=C[C@@H]2[C@@H](C(C)C)CC[C@@]3(CO3)[C@H]2C(=O)OC1`, the IC50 in the assay on A-375 was 4090 nM; in [1], 1740 nM; in the assay on A549 [2], 450 nM; in [3], 4100 nM; in the assay on HCT-116, 2190 nM.
Turning to `C=C(C(=O)O)C1OC(=O)[C@H]2[C@H]1[C@@H](C(C)C)CC[C@@]2(O)CI` (some centres undefined), the IC50 (in the assay on A-375; in assay [1]; with A549 [2]; in assay [3]; with HCT-116) was > 10000 nM throughout.
As for `CC(C)[C@H]1CC[C@@](O)(CCl)[C@H]2C(=O)OCC(C(=O)OCc3ccc(-c4ccccc4)o3)=C[C@H]12`, the IC50 in the assay with A-375 turned out to be 4000 nM; in assay [1], 1110 nM; with A549 [2] it was 1720 nM; in [3] it was 2910 nM; with HCT-116 it was 610 nM.
`CC(C)[C@H]1CC[C@@](O)(CI)[C@H]2C(=O)OCC(C(=O)O)=C[C@H]12`: the IC50 with A-375 is > 10000 nM; in assay [1] it was 3260 nM; in the assay on A549 [2], 5430 nM; in [3] it was 10100 nM; in the assay on HCT-116, 2140 nM.
Regarding `COc1cccc2c1C(=O)c1c(O)c3c(c(O)c1C2=O)C[C@@](O)(C(=O)CO)C[C@@H]3O[C@H]1C[C@H](N)[C@H](O)[C@H](C)O1` [DOXORUBICIN], the IC50 in the assay on HOP-62 worked out at 20 nM; in the assay with A-375, 10 nM; in the assay on OVCAR-3 it was 20 nM; in the assay on T47D it was 20 nM; with A549 [2], 30 nM; in assay [3] it was 150 nM. Further, the IC50 in the assay on DU-145, in the assay with KM12, with SK-OV-3, in the assay on A549 [4], in the assay with TK-10 and with NCI-H460 was 20 nM each time. The result in the assay on HT-29 and in the assay on MDA-MB-231 was inactive.
As for `CC(C)[C@H]1CC[C@@]2(CO2)[C@H]2C(=O)OCC(C(=O)OCc3ccc(-c4ccc([N+](=O)[O-])cc4)o3)=C[C@H]12`, the IC50 in the assay with A-375 worked out at 1640 nM; in assay [1] it was 1190 nM; in the assay on A549 [2], 450 nM; in [3], 3600 nM; with HCT-116, 620 nM.
